Test results reported in paper PMC6828666, “Discovery of holoenzyme-disrupting chemicals as substrate-selective CK2 inhibitors” (Scientific Reports, 2019).

Legend:
[1] = target: T1, CK2α (Homo sapiens, UniProt P68400); assay: STD-NMR competition with AMPPNP; type: binding
Description: Standard 1D, STD, and WaterLOGSY NMR spectra were acquired at 20 °C with a Bruker 600 MHz NMR spectrometer, equipped with a Z-gradient cryoprobe. WaterLOGSY mixing time was 1.5 s. Both STD and WaterLOGSY spectra were recorded for each sample. WaterLOGSY spectra in the absence of protein receptor were recorded with 300 µM compound to assess the compound solubility. All the NMR experiments were performed at 293 K with excitation sculpting to suppress peaks from water. 1D and STD experiments were performed using identical experimental conditions (spin lock, interscan delays), and parameters for the STD experiments (saturation frequency and saturation time) were identical for all samples. […] NMR tubes contained 2 μM CK2 with 300 μM of 4.
Fig. S8. NMR-based investigation of the binding of compound 4 to CK2α. (a) NMR-STD epitope mapping observed for compound 4. […] Both compounds bind simultaneously to CK2α.

[2] = target: T1, CK2α; assay: Steady state kinetic analysis of CK2 inhibition (Lineweaver-Burk); type: biochemical; design: made in house; host or cells: Escherichia coli (CK2α); conditions: for Ki: increasing ATP
Description: Steady state kinetic analysis of compound 1 complexation with CK2 was performed by incubation of CK2α with increasing concentrations of CK2β in the presence of different concentrations of the compound. ATP and eIF2-derived peptide were present at their saturating concentrations, 100 μM and 600 μM, respectively (Fig. 3e).
In the presence of 100 μM of compound 1, adding increasing concentrations of CK2β-dependent peptide at a saturating concentration of ATP (100 μM) had no effect on the extent of inhibition (Fig. 2d) showing that the inhibition is also not competitive with the peptide substrate. Using steady-state kinetic analysis, we examined the effects of increasing ATP concentrations on the inhibition of phosphorylation by compound 1. In the presence of a saturating concentration of the CK2β-dependent peptide substrate (133 μM), increasing ATP concentrations reduced the level of inhibition but could not restore either the maximal velocity of the enzyme, Vmax, or the Michaelis constant, km, for ATP.
For Olig2 phosphorylation assay, GST-Olig2 fusion protein (3.7 μg) was incubated with 200 nM CK2α, in the absence or presence of 50 μM compound 1 and increasing concentrations of CK2β. Samples were analyzed by SDS PAGE and subjected to autoradiography. Phosphoproteins were quantified by densitometry scanning. For eIF2 peptide phosphorylation assay, the CK2β-dependent peptide substrate (600 μM) was incubated with CK2α (40–50 nM) and increasing concentrations of compound 1 or/and CK2β.
Fig. S2. Ki and Ki’ value determination from enzymatic kinetic characterization of CK2 inhibition by compound 1. (a) Ki value has been calculated from linear regression analysis of the slopes (α/Vmax) of the Lineweaver-Burk double reciprocal plots of Fig 2f. (b) Ki’ value has been calculated from linear regression analysis of the y-intercept (α’/Vmax) of Lineweaver-Burk double reciprocal plots of Fig 2f.

[3] = target: T2, CK2 subunit association in MCF10A cells (Homo sapiens, UniProt P68400); assay: Anti-CK2β immunoprecipitation from treated MCF10A cells; type: cell-based; conditions: 75 μM, 4 h; CK2β-dependent and CK2β-independent substrate; vs DMSO
T2 construct: endogenous in cells; host or cells: MCF10A
T2 sequence (P68400 whole entry): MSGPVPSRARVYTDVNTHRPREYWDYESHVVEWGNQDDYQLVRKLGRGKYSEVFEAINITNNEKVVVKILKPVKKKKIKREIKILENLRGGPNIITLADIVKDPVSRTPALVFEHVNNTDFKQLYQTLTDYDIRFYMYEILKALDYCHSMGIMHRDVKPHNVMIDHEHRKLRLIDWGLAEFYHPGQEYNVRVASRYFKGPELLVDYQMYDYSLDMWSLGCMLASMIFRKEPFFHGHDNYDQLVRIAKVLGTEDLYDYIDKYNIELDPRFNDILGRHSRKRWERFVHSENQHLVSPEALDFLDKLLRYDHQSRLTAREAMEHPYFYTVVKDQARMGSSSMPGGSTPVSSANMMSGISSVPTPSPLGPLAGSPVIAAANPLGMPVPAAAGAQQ
Description: The transient nature of the CK2 holoenzyme has been highlighted by the elucidation of its structure. Furthermore, analysis of the spatiotemporal organization of individual CK2 subunits in living cells has shown that they are highly dynamic[10],[12]. Thus, we evaluated the effect of 6 on the CK2 subunit association in human mammary epithelial cells, using two independent strategies. First, CK2β was immunoprecipitated from extracts of MCF10A cells treated with DMSO as control or 75 μM of 6, and the amount of CK2α or CK2 catalytic activity recovered in the immunoprecipitates were analyzed by western blot and CK2 activity assay.
Anti-CK2β immunoprecipitates were prepared from MCF10A cells incubated with DMSO (0.5%) or 75 μM 6 for 4 h. The corresponding immunoprecipitates were analyzed for the presence of CK2 subunits by Western blot (a) and quantified in (b) or for CK2 activity with CK2β-independent and CK2β-dependent peptide substrate (c). […] (d) In situ proximity ligation images of MCF10A cells incubated with 50 μM 6 for 3 h. (e) Number of fluorescent dots per cell was quantified using the BlobFinder software. n = 120 cells from two independent experiments. Mann Whitney test was used and results were found significant (*p-value = 0.0003 and **p-value = 0.044). TEXT PRINTED IN THE PICTURE: (a) 6: Ratio CK2α/CK2β relative to control: 0.77 (75 μM)

T1 sequence (P68400 whole entry): as above

O=C(OCC1CCN(CCNS(=O)(=O)c2ccccc2)CC1)c1c[nH]c2ccccc12 [Compound 4, (1-(2-(Phenylsulfonamido)ethyl)piperidin-4-yl)methyl 1H-indole-3-carboxylate]
displacement of AMPPNP upon compound binding [1]: not displaced

COc1[nH]c2ccc(F)cc2c1C(=O)OCC1CCN(CCNS(C)(=O)=O)CC1 [Compound 1]
Ki ([2]; for CK2α, Lineweaver-Burk slopes): 12 µM | Ki ([2]; for the CK2α-ATP complex, Lineweaver-Burk y-intercepts): 62 µM | Ki' (mixed competitive inhibition towards CK2β) ([2]; for the CK2α-ATP complex, increasing CK2β, ATP 100 μM, eIF2-derived peptide 600 μM): ~65 µM

COc1[nH]c2ccc(F)cc2c1C(=O)OCC1CCN(CCNS(=O)(=O)c2ccccc2)CC1.Cl [Compound 6]
CK2 activity in anti-CK2β precipitates [3]: significantly lower
